Experimental data as given in patent publication US20070105181A1, “Identification of cancer biomarkers and phosphorylated pdroteins” (Invitrogen Corporation, priority 2005, published 2007).

System: Dok-2 phosphorylation (tyrosine 299)
Assay: SILAC/MALDI-TOF quantitation of Dok-2 phosphopeptide in CML cells after STI571 treatment
Format: cell-based
Conditions: human CML cells
Protocol: SILAC is a also powerful tool for quantifying posttranslational modifications. We examined the change in the level of phosphophorylation of Dok-2 in response to treatment of STI571, an inhibitor of Bcr-Abl kinase, in human chronic myelogenous leukemia cells. As a control, aliquots of heavy tyrosine (U—^13C9) labeled cells (5×10^8) were mixed equally with light tyrosine (^12C) labeled cells (5×10^8) before the drug treatment.
A first aliquot of heavy tyrosine labeled cells (5×10^8) was preincubated with 1 μM of STI571 at 37° C. for 1 h and then mixed with an equal number of light (natural abundance) isotope tyrosine labeled cells. A second aliquot of heavy tyrosine labeled cells (5×10^8) was preincubated with 1 μM of STI571 at 37° C. for 2 h and then also mixed with an equal number of light (natural abundance) isotope tyrosine labeled cells. In both cases, the cell mixtures (1×10^9) were lysed with NP40 lysis buffer and incubated with 30 μg of the GST fusion of the SH2 domain of SHIP1 conjugated to glutathione Sepharose 4B. Affinity captured proteins were then analyzed by SDS-PAGE on a NuPAGE® acrylamide gel (Invitrogen, Carlsbad, Calif.) and stained with SimplyBlue™ SafeStain™ protein gel stain (Invitrogen, Carlsbad, Calif.). The Dok-2 protein bands from each mixed cell sample were excised and digested with trypsin. The resulting tryptic peptides were analyzed by MALDI-TOF.

With Cc1ccc(NC(=O)c2ccc(CN3CCN(C)CC3)cc2)cc1Nc1nccc(-c2cccnc2)n1 [STI571] the “amount of phosphopeptide of Dok2 reduced to (peptide ratio m/z 1688 to m/z 1697)” value (1 μM STI571, 37° C., 1 h) was 75%, the “inhibition of heavy labeled Dok-2 phosphopeptide (ratio of isotopic peptide pairs)” value (1 μM STI571, 37° C., 2 h) was “more than 90%” and the “decrease of phosphorylation level of Dok-2 Tyrosine 299 site” value (STI571 treatment, 1 h) was 75%.
